Legend:
Test in all cases: biochemical
Parameters in all cases: KinomeScan competition binding panel (DiscoveRx), percent of control at 1 uM
Settings in all cases: read-out: Percent Control
PRKR = target: T1, PRKR (Homo sapiens, UniProt P19525)
T1 construct: gene EIF2AK2
Summary of the method: (§1)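 KinomeScan technology used to profile binding across a panel of 456 kinases and mutants.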

MARK3 = MARK3 (Homo sapiens, UniProt P27448)
Summary of the method: as §1

MAPKAPK5 = MAPKAPK5 (Homo sapiens, UniProt Q8IW41)
Summary of the method: as §1

PRKG1 = PRKG1 (Homo sapiens, UniProt Q13976)
Summary of the method: as §1

FGFR4 = FGFR4 (Homo sapiens, UniProt P22455)
Summary of the method: as §1

EPHB3 = EPHB3 (Homo sapiens, UniProt P54753)
Summary of the method: as §1

BRSK1 = BRSK1 (Homo sapiens, UniProt Q8TDC3)
Summary of the method: as §1

CAMKK2 = CAMKK2 (Homo sapiens, UniProt Q96RR4)
Summary of the method: as §1

GRK1 = GRK1 (Homo sapiens, UniProt Q15835)
Summary of the method: as §1

MKK7 = target: T2, MKK7 (Homo sapiens, UniProt O14733)
T2 construct: gene MAP2K7
Summary of the method: as §1

JNK1 = target: T3, JNK1 (Homo sapiens, UniProt P45983)
T3 construct: gene MAPK8
Summary of the method: as §1

MEK6 = target: T4, MEK6 (Homo sapiens, UniProt P52564)
T4 construct: gene MAP2K6
Summary of the method: as §1

QSK = target: T5, QSK (Homo sapiens, UniProt Q9Y2K2)
T5 construct: gene SIK3
Summary of the method: as §1

PAK1 = PAK1 (Homo sapiens, UniProt Q13153)
Summary of the method: as §1

MAK = MAK (Homo sapiens, UniProt P20794)
Summary of the method: as §1

[1] = target: T6, RSK1(Kin.Dom.1-N-terminal) (Homo sapiens, UniProt Q15418)
T6 construct: gene RPS6KA1; Kin.Dom.1-N-terminal
Summary of the method: as §1

[2] = target: T7, ABL1(Q252H)-phosphorylated (Homo sapiens, UniProt P00519, Q252H)
T7 construct: phosphorylated
Summary of the method: as §1

SRPK3 = SRPK3 (Homo sapiens, UniProt Q9UPE1)
Summary of the method: as §1

NEK9 = NEK9 (Homo sapiens, UniProt Q8TD19)
Summary of the method: as §1

PIM3 = PIM3 (Homo sapiens, UniProt Q86V86)
Summary of the method: as §1

CSNK2A2 = CSNK2A2 (Homo sapiens, UniProt P19784)
Summary of the method: as §1

[3] = target: T8, ABL1(F317L)-nonphosphorylated (Homo sapiens, UniProt P00519, F317L)
T8 construct: nonphosphorylated
Summary of the method: as §1

AKT1 = AKT1 (Homo sapiens, UniProt P31749)
Summary of the method: as §1

LTK = LTK (Homo sapiens, UniProt P29376)
Summary of the method: as §1

PIK3CA(H1047L) = PIK3CA(H1047L) (Homo sapiens, UniProt P42336, H1047L)
Summary of the method: as §1

Sequence of SRPK3 (Q9UPE1 whole entry): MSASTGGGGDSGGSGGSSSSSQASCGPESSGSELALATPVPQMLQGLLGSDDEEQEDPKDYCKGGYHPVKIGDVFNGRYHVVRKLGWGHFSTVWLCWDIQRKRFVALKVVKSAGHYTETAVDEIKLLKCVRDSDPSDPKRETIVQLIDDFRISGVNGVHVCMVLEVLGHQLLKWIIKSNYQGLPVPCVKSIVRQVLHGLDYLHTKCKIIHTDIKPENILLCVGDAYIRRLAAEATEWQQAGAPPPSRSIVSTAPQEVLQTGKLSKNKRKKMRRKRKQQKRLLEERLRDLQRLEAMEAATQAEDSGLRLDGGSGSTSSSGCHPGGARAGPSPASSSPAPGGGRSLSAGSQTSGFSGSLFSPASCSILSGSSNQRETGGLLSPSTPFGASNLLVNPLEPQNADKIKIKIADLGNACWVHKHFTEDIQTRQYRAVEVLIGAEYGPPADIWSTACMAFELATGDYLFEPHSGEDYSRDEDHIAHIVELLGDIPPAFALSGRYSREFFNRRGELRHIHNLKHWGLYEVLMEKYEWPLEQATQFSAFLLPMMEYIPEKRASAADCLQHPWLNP
Sequence of MARK3 (P27448 whole entry): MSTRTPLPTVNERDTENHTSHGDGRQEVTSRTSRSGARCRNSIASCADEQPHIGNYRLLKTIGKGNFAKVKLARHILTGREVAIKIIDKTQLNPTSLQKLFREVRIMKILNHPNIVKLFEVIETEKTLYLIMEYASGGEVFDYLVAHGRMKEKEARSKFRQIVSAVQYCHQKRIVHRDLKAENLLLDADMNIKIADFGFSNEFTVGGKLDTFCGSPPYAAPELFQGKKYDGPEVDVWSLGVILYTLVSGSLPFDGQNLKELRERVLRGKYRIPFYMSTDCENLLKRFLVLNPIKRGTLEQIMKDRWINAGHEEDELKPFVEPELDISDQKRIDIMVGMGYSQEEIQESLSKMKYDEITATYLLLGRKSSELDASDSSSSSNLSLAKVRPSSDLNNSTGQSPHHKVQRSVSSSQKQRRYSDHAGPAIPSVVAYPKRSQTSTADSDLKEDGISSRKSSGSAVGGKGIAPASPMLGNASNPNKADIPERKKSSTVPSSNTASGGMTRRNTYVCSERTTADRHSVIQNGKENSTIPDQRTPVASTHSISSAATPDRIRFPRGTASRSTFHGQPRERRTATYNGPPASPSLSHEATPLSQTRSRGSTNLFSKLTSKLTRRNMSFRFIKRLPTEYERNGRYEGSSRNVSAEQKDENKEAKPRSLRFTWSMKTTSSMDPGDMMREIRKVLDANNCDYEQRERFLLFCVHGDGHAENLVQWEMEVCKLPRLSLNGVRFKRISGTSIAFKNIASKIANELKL
T1 sequence (P19525 whole entry): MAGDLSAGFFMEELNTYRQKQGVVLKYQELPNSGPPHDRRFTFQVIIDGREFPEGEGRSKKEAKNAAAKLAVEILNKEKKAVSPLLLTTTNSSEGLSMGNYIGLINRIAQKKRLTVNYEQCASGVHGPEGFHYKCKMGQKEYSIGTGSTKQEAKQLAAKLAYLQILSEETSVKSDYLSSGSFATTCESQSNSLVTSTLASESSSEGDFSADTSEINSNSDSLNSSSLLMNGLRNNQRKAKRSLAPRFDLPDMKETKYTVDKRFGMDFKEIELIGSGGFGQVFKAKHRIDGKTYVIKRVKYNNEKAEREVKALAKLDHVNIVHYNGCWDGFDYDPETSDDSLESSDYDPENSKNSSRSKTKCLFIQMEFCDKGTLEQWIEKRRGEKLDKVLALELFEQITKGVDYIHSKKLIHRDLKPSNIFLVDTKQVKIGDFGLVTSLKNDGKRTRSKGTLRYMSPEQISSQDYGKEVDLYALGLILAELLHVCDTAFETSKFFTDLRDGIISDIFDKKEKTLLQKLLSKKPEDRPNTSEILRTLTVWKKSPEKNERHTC
Sequence of AKT1 (P31749 whole entry): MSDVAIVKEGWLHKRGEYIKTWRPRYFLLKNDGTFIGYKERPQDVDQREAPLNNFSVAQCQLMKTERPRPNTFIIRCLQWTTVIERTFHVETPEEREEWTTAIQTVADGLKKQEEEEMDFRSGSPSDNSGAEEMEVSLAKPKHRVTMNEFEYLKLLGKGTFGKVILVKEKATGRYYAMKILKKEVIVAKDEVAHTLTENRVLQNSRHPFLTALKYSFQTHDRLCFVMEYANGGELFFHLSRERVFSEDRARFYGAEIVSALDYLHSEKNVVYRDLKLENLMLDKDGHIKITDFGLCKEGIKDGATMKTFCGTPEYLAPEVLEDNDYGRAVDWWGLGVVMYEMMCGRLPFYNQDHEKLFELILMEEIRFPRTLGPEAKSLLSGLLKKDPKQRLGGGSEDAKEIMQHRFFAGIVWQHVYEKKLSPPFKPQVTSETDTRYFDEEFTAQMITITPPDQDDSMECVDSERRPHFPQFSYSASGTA
Sequence of BRSK1 (Q8TDC3 whole entry): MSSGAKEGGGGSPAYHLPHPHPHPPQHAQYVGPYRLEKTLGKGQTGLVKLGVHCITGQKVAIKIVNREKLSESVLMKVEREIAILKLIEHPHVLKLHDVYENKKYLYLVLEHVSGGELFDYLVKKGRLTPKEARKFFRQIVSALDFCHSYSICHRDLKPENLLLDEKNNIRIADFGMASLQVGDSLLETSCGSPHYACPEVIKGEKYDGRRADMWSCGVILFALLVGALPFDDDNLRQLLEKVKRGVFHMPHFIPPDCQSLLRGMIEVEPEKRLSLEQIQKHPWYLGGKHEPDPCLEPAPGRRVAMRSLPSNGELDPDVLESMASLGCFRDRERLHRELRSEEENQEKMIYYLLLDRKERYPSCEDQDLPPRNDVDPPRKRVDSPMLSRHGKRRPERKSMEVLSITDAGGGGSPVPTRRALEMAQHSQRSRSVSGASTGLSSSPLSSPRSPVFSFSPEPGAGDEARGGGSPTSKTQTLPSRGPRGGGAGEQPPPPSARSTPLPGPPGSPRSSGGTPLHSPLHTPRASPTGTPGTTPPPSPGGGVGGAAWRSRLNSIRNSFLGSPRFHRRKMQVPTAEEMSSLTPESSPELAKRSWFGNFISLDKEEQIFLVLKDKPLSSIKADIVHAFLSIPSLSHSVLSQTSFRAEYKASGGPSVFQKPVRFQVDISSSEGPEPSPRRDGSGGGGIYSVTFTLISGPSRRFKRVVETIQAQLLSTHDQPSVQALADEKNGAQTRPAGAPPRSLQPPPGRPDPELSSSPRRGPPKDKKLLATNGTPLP
T5 sequence (Q9Y2K2 whole entry): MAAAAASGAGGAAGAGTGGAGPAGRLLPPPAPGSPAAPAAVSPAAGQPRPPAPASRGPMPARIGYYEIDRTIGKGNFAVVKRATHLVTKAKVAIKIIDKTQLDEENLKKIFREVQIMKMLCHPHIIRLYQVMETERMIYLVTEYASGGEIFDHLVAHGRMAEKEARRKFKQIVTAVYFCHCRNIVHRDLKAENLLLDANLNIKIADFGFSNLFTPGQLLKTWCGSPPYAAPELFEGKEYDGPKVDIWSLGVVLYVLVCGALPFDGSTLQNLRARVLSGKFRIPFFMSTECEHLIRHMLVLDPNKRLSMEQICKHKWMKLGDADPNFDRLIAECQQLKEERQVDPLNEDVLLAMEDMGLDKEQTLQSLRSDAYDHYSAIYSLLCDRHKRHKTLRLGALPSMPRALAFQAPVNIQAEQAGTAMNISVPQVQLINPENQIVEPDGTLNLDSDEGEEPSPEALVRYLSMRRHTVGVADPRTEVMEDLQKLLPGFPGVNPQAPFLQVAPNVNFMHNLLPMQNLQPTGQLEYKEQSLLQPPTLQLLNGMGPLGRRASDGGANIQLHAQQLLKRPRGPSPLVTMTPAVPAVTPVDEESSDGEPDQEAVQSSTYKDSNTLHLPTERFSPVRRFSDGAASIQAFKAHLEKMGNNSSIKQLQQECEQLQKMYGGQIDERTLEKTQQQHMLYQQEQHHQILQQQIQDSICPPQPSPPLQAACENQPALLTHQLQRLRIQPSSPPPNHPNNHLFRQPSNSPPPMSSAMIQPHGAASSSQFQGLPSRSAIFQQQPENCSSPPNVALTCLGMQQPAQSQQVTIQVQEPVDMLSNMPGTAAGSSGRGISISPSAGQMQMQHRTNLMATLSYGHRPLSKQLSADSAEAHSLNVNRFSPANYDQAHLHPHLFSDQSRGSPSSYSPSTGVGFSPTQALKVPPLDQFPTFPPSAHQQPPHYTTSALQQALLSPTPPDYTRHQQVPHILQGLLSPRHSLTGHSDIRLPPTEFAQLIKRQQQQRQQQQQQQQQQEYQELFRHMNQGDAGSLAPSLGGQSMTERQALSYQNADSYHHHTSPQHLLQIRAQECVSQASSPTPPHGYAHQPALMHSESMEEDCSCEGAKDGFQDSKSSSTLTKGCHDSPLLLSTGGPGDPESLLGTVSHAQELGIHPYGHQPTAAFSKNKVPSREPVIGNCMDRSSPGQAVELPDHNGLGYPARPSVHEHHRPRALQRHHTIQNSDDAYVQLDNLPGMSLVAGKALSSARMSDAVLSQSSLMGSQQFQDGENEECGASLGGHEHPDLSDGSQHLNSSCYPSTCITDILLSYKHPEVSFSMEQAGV

## C=CC(=O)Nc1cc(-n2c(=O)ccc3cnc4ccc(-n5cccn5)cc4c32)ccc1C [CHMFL-BTK-11]
PRKR
  remaining binding at 1 µM: 80%
MARK3
  remaining binding at 1 µM: 100%
MAPKAPK5
  remaining binding at 1 µM: 100%
PRKG1
  remaining binding at 1 µM: 100%
FGFR4
  remaining binding at 1 µM: 100%
EPHB3
  remaining binding at 1 µM: 97%
BRSK1
  remaining binding at 1 µM: 100%
CAMKK2
  remaining binding at 1 µM: 78%
GRK1
  remaining binding at 1 µM: 71%
MKK7
  remaining binding at 1 µM: 77%
JNK1
  remaining binding at 1 µM: 72%
MEK6
  remaining binding at 1 µM: 79%
QSK
  remaining binding at 1 µM: 92%
PAK1
  remaining binding at 1 µM: 100%
MAK
  remaining binding at 1 µM: 100%
[1]
  remaining binding at 1 µM: 82%
[2]
  remaining binding at 1 µM: 100%
SRPK3
  remaining binding at 1 µM: 96%
NEK9
  remaining binding at 1 µM: 100%
PIM3
  remaining binding at 1 µM: 95%
CSNK2A2
  remaining binding at 1 µM: 52%
[3]
  remaining binding at 1 µM: 96%
AKT1
  remaining binding at 1 µM: 96%
LTK
  remaining binding at 1 µM: 100%
PIK3CA(H1047L)
  remaining binding at 1 µM: 85%

Reference: publication PMC5428509, “Irreversible inhibition of BTK kinase by a novel highly selective inhibitor CHMFL-BTK-11 suppresses inflammatory response in rheumatoid arthritis model” (Scientific Reports, 2017)
